biological target: T1, full-length recombinant human NEK7 (Homo sapiens, UniProt Q8TDX7); experiment: NEK7 enzymatic assay ([33P]-ATP, casein substrate); format: biochemical; conditions: Table 2a; recombinant human NEK7, casein substrate
T1 construct: full-length recombinant human NEK7; GST (N); purchased SignalChem N09-10G; host or cells: Sf9 insect cells (baculovirus)
How it was run: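 Serially diluted compounds (10 μM down to 0.5 nM, 3-fold) were preincubated 20 min at room temperature with N-terminal GST-NEK7 from Sf9 cells and casein in pH 7.5 Hepes/MgCl2/EGTA/Brij35/DTT buffer containing 1% DMSO. [33P]-ATP then started a 2 h room-temperature reaction, stopped by spotting onto P81 paper. IC50 came from percent activity remaining versus vehicle.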

T1 sequence (Q8TDX7 whole entry): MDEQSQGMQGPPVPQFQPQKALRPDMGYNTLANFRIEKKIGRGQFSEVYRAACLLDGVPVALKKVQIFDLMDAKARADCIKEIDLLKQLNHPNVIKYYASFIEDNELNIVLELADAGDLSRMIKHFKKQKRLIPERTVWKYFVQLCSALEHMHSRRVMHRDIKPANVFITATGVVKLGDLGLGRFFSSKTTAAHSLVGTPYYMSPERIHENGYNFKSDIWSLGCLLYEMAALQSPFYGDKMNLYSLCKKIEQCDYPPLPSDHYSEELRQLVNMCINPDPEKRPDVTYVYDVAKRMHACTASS

IC50 [nM]	SMILES
151 to 300	CC(C)(C)c1cc(NC(=O)Nc2ccc(-c3nn(C4COC4)c4ncnc(N)c34)cc2)on1 [Ia-2, 1-(4-(4-amino-1-(oxetan-3-yl)-1H-pyrazolo[3,4-d]pyrimidin-3-yl)phenyl)-3-(3-(tert-butyl)isoxazol-5-yl)urea]
301 to 500	CC(C)n1nc(-c2ccc(NC(=O)Nc3cc(C(C)(C)C)no3)cc2)c2c(N)ncnc21 [Ia-1, 1-(4-(4-amino-1-isopropyl-1H-pyrazolo[3,4-d]pyrimidin-3-yl)phenyl)-3-(3-(tert-butyl)isoxazol-5-yl)urea]
151 to 300	CC1(c2cc(NC(=O)Nc3ccc(-c4nn(C5CC5)c5ncnc(N)c45)cc3F)on2)CCC1 [Ia-44, 1-(4-(4-amino-1-cyclopropyl-1H-pyrazolo[3,4-d]pyrimidin-3-yl)-2-fluorophenyl)-3-(3-(1-methylcyclobutyl)isoxazol-5-yl)urea]
301 to 500	CC(C)(C)c1cc(NC(=O)Nc2ccc(-c3nn(-c4ccncc4)c4ncnc(N)c34)cc2F)on1 [Ia-17, 1-(4-(4-amino-1-(pyridin-4-yl)-1H-pyrazolo[3,4-d]pyrimidin-3-yl)-2-fluorophenyl)-3-(3-(tert-butyl)isoxazol-5-yl)urea]
501 to 1500	CC(C)(F)c1cc(NC(=O)Nc2ccc(-c3nn(C4CC4)c4ncnc(N)c34)cc2F)on1 [Ia-27, 1-(4-(4-amino-1-cyclopropyl-1H-pyrazolo[3,4-d]pyrimidin-3-yl)-2-fluorophenyl)-3-(3-(2-fluoropropan-2-yl)isoxazol-5-yl)urea]
501 to 1500	CC(C)(C)c1cc(NC(=O)Nc2ccc(-c3nn(C4CC4)c4ccnc(N)c34)cc2)on1 [Ia-31, 1-(4-(4-amino-1-cyclopropyl-1H-pyrazolo[4,3-c]pyridin-3-yl)phenyl)-3-(3-(tert-butyl)isoxazol-5-yl)urea]
151 to 300	C=CCn1nc(-c2ccc(NC(=O)Nc3cc(C(C)(C)C)on3)c(F)c2)c2c(N)ncnc21 [Ia-26]
301 to 500	CC(C)(C)c1cc(NC(=O)Nc2ccc(-c3nn(C4CCOCC4)c4ncnc(N)c34)cc2)on1 [Ia-4, 1-(4-(4-amino-1-(tetrahydro-2H-pyran-4-yl)-1H-pyrazolo[3,4-d]pyrimidin-3-yl)phenyl)-3-(3-(tert-butyl)isoxazol-5-yl)urea]
301 to 500	Cc1cc(-c2nn(C3CC3)c3ncnc(N)c23)ccc1NC(=O)Nc1cc(C2(C(F)(F)F)CC2)no1 [Ia-48, 1-(4-(4-amino-1-cyclopropyl-1H-pyrazolo[3,4-d]pyrimidin-3-yl)-2-methylphenyl)-3-(3-(1-(trifluoromethyl)cyclopropyl)isoxazol-5-yl)urea]

same assay, conditions: Table 2b; recombinant human NEK7, casein substrate

IC50 [nM]	SMILES
> 1500	CC(C)(C)c1cc(NC(=O)Nc2ccc(Oc3ccnc4[nH]ccc34)cc2F)n(-c2ccccc2)n1 [Ib-1, 1-(4-((1H-pyrrolo[2,3-b]pyridin-4-yl)oxy)-2-fluorophenyl)-3-(3-(tert-butyl)-1-phenyl-1H-pyrazol-5-yl)urea]
> 1500	CC(C)(C)c1cc(NC(=O)Nc2ccc(Oc3ncnc4[nH]cc(Cl)c34)cc2F)n(-c2ccccc2)n1 [Ib-13, 1-(3-(tert-butyl)-1-phenyl-1H-pyrazol-5-yl)-3-(4-((5-chloro-7H-pyrrolo[2,3-b]pyrimidin-4-yl)oxy)-2-fluorophenyl)urea]

same assay, conditions: Table 2e; recombinant human NEK7, casein substrate

IC50 [nM]	SMILES
> 1500	COCCN1CCN(Cc2ccc(NC(=O)Nc3ccc(Oc4ccnc5[nH]cc(Cl)c45)cc3F)cc2C(F)(F)F)CC1 [Ie-42, 1-(4-((3-chloro-1H-pyrrolo[2,3-b]pyridin-4-yl)oxy)-2-fluorophenyl)-3-(4-((4-(2-methoxyethyl)piperazin-1-yl)methyl)-3-(trifluoromethyl)phenyl)urea]
301 to 500	CC(C)N1CCN(Cc2ccc(NC(=O)Nc3ccc(Oc4ccnc5[nH]cc(Cl)c45)cc3F)cc2C(F)(F)F)CC1 [Ie-10, 1-(4-((3-chloro-1H-pyrrolo[2,3-b]pyridin-4-yl)oxy)-2-fluorophenyl)-3-(4-((4-isopropylpiperazin-1-yl)methyl)-3-(trifluoromethyl)phenyl)urea]
> 1500	CN(C)C1CN(Cc2ccc(NC(=O)Nc3ccc(Oc4ccnc5[nH]cc(Cl)c45)cc3F)cc2C(F)(F)F)C1 [Ie-8, 1-(4-((3-chloro-1H-pyrrolo[2,3-b]pyridin-4-yl)oxy)-2-fluorophenyl)-3-(4-((3-(dimethylamino)azetidin-1-yl)methyl)-3-(trifluoromethyl)phenyl)urea]
> 1500	Cc1cc(Oc2ccnc3[nH]c(Cl)c(Cl)c23)ccc1NC(=O)Nc1ccc(CN2CCN(C)CC2)c(C(F)(F)F)c1 [Ie-30, 1-(4-((2,3-dichloro-1H-pyrrolo[2,3-b]pyridin-4-yl)oxy)-2-methylphenyl)-3-(4-((4-methylpiperazin-1-yl)methyl)-3-(trifluoromethyl)phenyl)urea]
> 1500	CN1CCCN(Cc2ccc(NC(=O)Nc3ccc(Oc4ccnc5[nH]cc(Cl)c45)cc3F)cc2C(F)(F)F)CC1 [Ie-17, 1-(4-((3-chloro-1H-pyrrolo[2,3-b]pyridin-4-yl)oxy)-2-fluorophenyl)-3-(4-((4-methyl-1,4-diazepan-1-yl)methyl)-3-(trifluoromethyl)phenyl)urea]
> 1500	O=C(Nc1ccc(CN2CCC2)c(C(F)(F)F)c1)Nc1ccc(Oc2ccnc3[nH]cc(Cl)c23)cc1F [Ie-31, 1-(4-(azetidin-1-ylmethyl)-3-(trifluoromethyl)phenyl)-3-(4-((3-chloro-1H-pyrrolo[2,3-b]pyridin-4-yl)oxy)-2-fluorophenyl)urea]
> 1500	COc1cc(NC(=O)Nc2ccc(Oc3ccnc4[nH]cc(Cl)c34)cc2F)ccc1CN1CCN(C)CC1 [Ie-43, 1-(4-((3-chloro-1H-pyrrolo[2,3-b]pyridin-4-yl)oxy)-2-fluorophenyl)-3-(3-methoxy-4-((4-methylpiperazin-1-yl)methyl)phenyl)urea]
501 to 1500	CN1CCC(Cc2ccc(NC(=O)Nc3ccc(Oc4ccnc5[nH]cc(Cl)c45)cc3F)cc2C(F)(F)F)CC1 [Ie-19, 1-(4-((3-chloro-1H-pyrrolo[2,3-H]pyridin-4-yl)oxy)-2-fluorophenyl)-3-(4-((1-methylpiperidin-4-yl)methyl)-3-(trifluoromethyl)phenyl)urea]
> 1500	CN1CCN(c2ccc(NC(=O)Nc3ccc(Oc4ccnc5[nH]cc(Cl)c45)cc3F)cc2C(F)(F)F)CC1 [Ie-14, 1-(4-((3-chloro-1H-pyrrolo[2,3-b]pyridin-4-yl)oxy)-2-fluorophenyl)-3-(4-(4-methylpiperazin-1-yl)-3-(trifluoromethyl)phenyl)urea]
> 1500	O=C(Nc1ccc(CN2CC(F)(F)C2)c(C(F)(F)F)c1)Nc1ccc(Oc2ccnc3[nH]cc(Cl)c23)cc1F [Ie-32, 1-(4-((3-chloro-1H-pyrrolo[2,3-b]pyridin-4-yl)oxy)-2-fluorophenyl)-3-(4-((3,3-difluoroazetidin-1-yl)methyl)-3-(trifluoromethyl)phenyl)urea]

same assay, conditions: Table 2d; recombinant human NEK7, casein substrate

IC50 [nM]	SMILES
> 1500	Nc1ncnc2c1c(-c1ccc(NC(=O)Nc3ccc(CN4CCOCC4)cc3F)c(F)c1)nn2C1CC1 [Id-26, 1-(4-(4-amino-1-cyclopropyl-1H-pyrazolo[3,4-d]pyrimidin-3-yl)-2-fluorophenyl)-3-(2-fluoro-4-(morpholinomethyl)phenyl)urea]
501 to 1500	CN1CCC(=Cc2ccc(NC(=O)Nc3ccc(-c4cn(C5CC5)c5ncnc(N)c45)cc3F)cc2C(F)(F)F)CC1 [Id-51, 1-(4-(4-amino-7-cyclopropyl-7H-pyrrolo[2,3-d]pyrimidin-5-yl)-2-fluorophenyl)-3-(4-((1-methylpiperidin-4-ylidene)methyl)-3-(trifluoromethyl)phenyl)urea]
301 to 500	CN1CCN(Cc2ccc(NC(=O)Nc3ccc(-c4nn(C5CC5)c5ccnc(N)c45)cn3)cc2C(F)(F)F)CC1 [Id-50, 1-(5-(4-amino-1-cyclopropyl-1H-pyrazolo[4,3-c]pyridin-3-yl)pyridin-2-yl)-3-(4-((4-methylpiperazin-1-yl)methyl)-3-(trifluoromethyl)phenyl)urea]
< 150	CN1CCC(Oc2ccc(NC(=O)Nc3ccc(-c4cn(C5CC5)c5ncnc(N)c45)cc3F)cc2C(F)(F)F)CC1 [Id-46, 1-(4-(4-amino-7-cyclopropyl-7H-pyrrolo[2,3-d]pyrimidin-5-yl)-2-fluorophenyl)-3-(4-((1-methylpiperidin-4-yl)oxy)-3-(trifluoromethyl)phenyl)urea]
> 1500	CN1CCN(Cc2ccc(NC(=O)Nc3ccc(-c4cn(C5CC5)c5ncnc(N)c45)cc3F)cc2C#N)CC1 [Id-53, 1-(4-(4-amino-7-cyclopropyl-7H-pyrrolo[2,3-d]pyrimidin-5-yl)-2-fluorophenyl)-3-(3-cyano-4-((4-methylpiperazin-1-yl)methyl)phenyl)urea]
< 150	CN1CCN(Cc2ccc(NC(=O)Nc3ccc(-c4cn(C5CC5)c5ncnc(N)c45)cc3F)cc2Cl)CC1 [Id-36, 1-(4-(4-amino-7-cyclopropyl-7H-pyrrolo[2,3-d]pyrimidin-5-yl)-2-fluorophenyl)-3-(3-chloro-4-((4-methylpiperazin-1-yl)methyl)phenyl)urea]
< 150	CN1CC2CC1CN2Cc1ccc(NC(=O)Nc2ccc(-c3cn(C4CC4)c4ncnc(N)c34)cc2F)cc1C(F)(F)F (stereo not drawn) [Id-63]
> 1500	Cc1cc(NC(=O)Nc2ccc(-c3nn(C(C)C)c4ncnc(N)c34)cc2)ccc1N1CCOCC1 [Id-1, 1-(4-(4-amino-1-isopropyl-1H-pyrazolo[3,4-J]pyrimidin-3-yl)phenyl)-3-(3-methyl-4-morpholinophenyl)urea]
< 150	Nc1ncnc2c1c(-c1ccc(NC(=O)Nc3ccc(CN4CCN(CCO)CC4)c(C(F)(F)F)c3)c(F)c1)cn2C1CC1 [Id-41, 1-(4-(4-amino-7-cyclopropyl-7H-pyrrolo[2,3-d]pyrimidin-5-yl)-2-fluorophenyl)-3-(4-((4-(2-hydroxyethyl)piperazin-1-yl)methyl)-3-(trifluoromethyl)phenyl)urea]

Reference: US20230210853A1 (Halia Therapeutics, Inc., priority 2020, published 2023)
